# Results: ChEMBL document CHEMBL4507283, “Data for DCP probe BI-1935” (2021)
# Key:
# [1] = molecular target: Receptor-interacting serine/threonine-protein kinase 1 (Homo sapiens) (UniProt Q13546); settings: Compound concentration 1000.0 nM
# [2] = system: Tyrosine-protein kinase ABL1 (Homo sapiens), P00519 [T315I]; settings: Compound concentration 1000.0 nM
# [3] = molecular target: Ribosomal protein S6 kinase alpha-3 (Homo sapiens) (UniProt P51812); settings: Compound concentration 1000.0 nM
# [4] = molecular target: Serine/threonine-protein kinase 16 (Homo sapiens) (UniProt O75716); settings: Compound concentration 1000.0 nM
# [5] = molecular target: Mitogen-activated protein kinase kinase kinase 15 (Homo sapiens) (UniProt Q6ZN16); settings: Compound concentration 1000.0 nM
# [6] = system: Receptor-type tyrosine-protein kinase FLT3 (Homo sapiens), P36888 [K663Q]; settings: Compound concentration 1000.0 nM
# [7] = molecular target: Histamine H3 receptor (Homo sapiens) (UniProt Q9Y5N1); settings: Compound concentration 10.0 uM
# [8] = molecular target: Dual specificity testis-specific protein kinase 1 (Homo sapiens) (UniProt Q15569); settings: Compound concentration 1000.0 nM
# [9] = molecular target: D(3) dopamine receptor (Homo sapiens) (UniProt P35462); experiment: D3/HU Eurofins-Panlabs selectivity data (BI); settings: Compound concentration 10.0 uM
# [10] = molecular target: Serotonin 2 (5-HT2) receptor (Rattus norvegicus) (UniProt P30994+P08909+P14842); experiment: 5HT2/R Eurofins-Panlabs selectivity data (BI); assay type: protein assay; settings: Compound concentration 10.0 uM
# [11] = molecular target: Ribosomal protein S6 kinase alpha-6 (Homo sapiens) (UniProt Q9UK32); settings: Compound concentration 1000.0 nM
# [12] = molecular target: Serine/threonine-protein kinase RIO1 (Homo sapiens) (UniProt Q9BRS2); settings: Compound concentration 1000.0 nM
# [13] = molecular target: Tyrosine-protein kinase ITK/TSK (Homo sapiens) (UniProt Q08881); settings: Compound concentration 1000.0 nM
# [14] = system: Fibroblast growth factor receptor 3 (Homo sapiens), P22607 [G697C]; settings: Compound concentration 1000.0 nM
# [15] = molecular target: Insulin receptor-related protein (Homo sapiens) (UniProt P14616); settings: Compound concentration 1000.0 nM
# [16] = molecular target: Serine/threonine-protein kinase Chk2 (Homo sapiens) (UniProt O96017); settings: Compound concentration 1000.0 nM
# [17] = molecular target: Wee1-like protein kinase 2 (Homo sapiens) (UniProt P0C1S8); settings: Compound concentration 1000.0 nM
# [18] = molecular target: Ribosomal protein S6 kinase alpha-6 (Homo sapiens) (UniProt Q9UK32); settings: Compound concentration 1000.0 nM; remark: listed apart in the source
# [19] = molecular target: Serine/threonine-protein kinase WNK3 (Homo sapiens) (UniProt Q9BYP7); settings: Compound concentration 1000.0 nM
# [20] = molecular target: Alpha-2A adrenergic receptor (Homo sapiens) (UniProt P08913); settings: Compound concentration 10.0 uM
# [21] = molecular target: Thromboxane A2 receptor (Homo sapiens) (UniProt P21731); experiment: PROST_A2TP Eurofins-Panlabs selectivity data (BI); settings: Compound concentration 10.0 uM
# [22] = molecular target: Ephrin type-A receptor 5 (Homo sapiens) (UniProt P54756); settings: Compound concentration 1000.0 nM
# [23] = system: Tyrosine-protein kinase ABL1 (Homo sapiens), P00519 [H396P]; settings: Compound concentration 1000.0 nM
# [24] = molecular target: Cyclin-dependent kinase 14 (Homo sapiens) (UniProt O94921); settings: Compound concentration 1000.0 nM
# [25] = molecular target: Microtubule-associated serine/threonine-protein kinase 1 (Homo sapiens) (UniProt Q9Y2H9); settings: Compound concentration 1000.0 nM
# [26] = molecular target: Serine/threonine-protein kinase/endoribonuclease IRE1 (Homo sapiens) (UniProt O75460); settings: Compound concentration 1000.0 nM
# [27] = molecular target: Ephrin type-A receptor 3 (Homo sapiens) (UniProt P29320); settings: Compound concentration 1000.0 nM
# [28] = system: ALK tyrosine kinase receptor (Homo sapiens), Q9UM73 [C1156Y]; settings: Compound concentration 1000.0 nM
# [29] = molecular target: Serine/threonine-protein kinase tousled-like 2 (Homo sapiens) (UniProt Q86UE8); settings: Compound concentration 1000.0 nM
# [30] = molecular target: Glycogen synthase kinase-3 beta (Homo sapiens) (UniProt P49841); settings: Compound concentration 1000.0 nM
# [31] = molecular target: Phosphatidylinositol 4,5-bisphosphate 3-kinase catalytic subunit gamma isoform (Homo sapiens) (UniProt P48736); settings: Compound concentration 1000.0 nM
# [32] = system: Tyrosine-protein kinase ABL1 (Homo sapiens), P00519 [H396P]; settings: Compound concentration 1000.0 nM; remark: listed apart in the source
# [33] = molecular target: cGMP-dependent protein kinase 1 (Homo sapiens) (UniProt Q13976); settings: Compound concentration 1000.0 nM
# [34] = molecular target: Calcium/calmodulin-dependent protein kinase type II subunit delta (Homo sapiens) (UniProt Q13557); settings: Compound concentration 1000.0 nM
# Chain of Ribosomal protein S6 kinase alpha-6 (Homo sapiens) (Q9UK32 whole entry): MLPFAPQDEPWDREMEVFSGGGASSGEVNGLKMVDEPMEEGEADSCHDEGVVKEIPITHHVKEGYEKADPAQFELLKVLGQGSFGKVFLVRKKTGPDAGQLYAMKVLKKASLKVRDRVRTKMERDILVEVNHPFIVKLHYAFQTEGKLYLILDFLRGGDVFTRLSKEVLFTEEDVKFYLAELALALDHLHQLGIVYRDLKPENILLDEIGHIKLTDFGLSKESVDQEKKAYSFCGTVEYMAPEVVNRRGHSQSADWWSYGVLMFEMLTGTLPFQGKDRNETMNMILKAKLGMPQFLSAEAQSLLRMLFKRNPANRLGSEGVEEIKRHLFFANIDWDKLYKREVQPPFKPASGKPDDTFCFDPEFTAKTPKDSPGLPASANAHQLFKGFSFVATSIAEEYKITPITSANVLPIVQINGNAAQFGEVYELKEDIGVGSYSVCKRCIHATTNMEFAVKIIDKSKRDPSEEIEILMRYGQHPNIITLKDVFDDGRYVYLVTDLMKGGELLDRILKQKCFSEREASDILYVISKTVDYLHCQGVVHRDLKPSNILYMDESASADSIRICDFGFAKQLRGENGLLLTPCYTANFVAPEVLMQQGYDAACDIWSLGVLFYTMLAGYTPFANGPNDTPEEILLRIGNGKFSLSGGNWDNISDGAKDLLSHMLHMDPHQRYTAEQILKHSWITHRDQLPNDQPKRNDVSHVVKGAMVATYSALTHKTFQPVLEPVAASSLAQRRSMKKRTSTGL
# Chain of Ephrin type-A receptor 3 (Homo sapiens) (P29320 whole entry): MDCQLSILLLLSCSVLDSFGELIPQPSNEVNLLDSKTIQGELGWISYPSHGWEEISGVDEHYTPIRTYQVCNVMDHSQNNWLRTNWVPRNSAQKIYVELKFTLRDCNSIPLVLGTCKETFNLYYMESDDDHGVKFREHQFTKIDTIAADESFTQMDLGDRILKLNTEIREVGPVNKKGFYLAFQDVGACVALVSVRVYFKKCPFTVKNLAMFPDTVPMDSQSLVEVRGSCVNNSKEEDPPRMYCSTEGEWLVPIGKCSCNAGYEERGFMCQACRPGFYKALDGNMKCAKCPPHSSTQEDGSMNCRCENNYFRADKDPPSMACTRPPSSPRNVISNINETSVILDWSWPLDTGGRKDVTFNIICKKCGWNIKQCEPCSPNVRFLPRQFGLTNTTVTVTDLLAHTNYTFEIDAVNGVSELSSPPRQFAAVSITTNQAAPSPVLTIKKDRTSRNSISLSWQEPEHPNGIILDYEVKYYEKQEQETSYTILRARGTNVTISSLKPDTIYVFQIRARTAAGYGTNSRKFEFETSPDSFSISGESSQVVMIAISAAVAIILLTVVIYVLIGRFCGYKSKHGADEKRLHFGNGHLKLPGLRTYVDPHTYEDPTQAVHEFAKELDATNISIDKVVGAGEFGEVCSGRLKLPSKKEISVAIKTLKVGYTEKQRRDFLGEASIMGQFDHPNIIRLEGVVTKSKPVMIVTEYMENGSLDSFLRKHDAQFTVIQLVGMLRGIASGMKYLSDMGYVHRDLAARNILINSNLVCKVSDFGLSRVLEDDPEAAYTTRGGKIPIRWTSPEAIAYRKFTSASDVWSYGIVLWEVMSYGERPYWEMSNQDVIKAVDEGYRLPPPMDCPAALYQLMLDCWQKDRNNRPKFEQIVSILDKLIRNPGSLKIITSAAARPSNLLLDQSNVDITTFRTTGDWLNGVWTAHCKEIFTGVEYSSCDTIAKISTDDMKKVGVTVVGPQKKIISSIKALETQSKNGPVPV
# Chain of Glycogen synthase kinase-3 beta (Homo sapiens) (P49841 whole entry, looked up, canonical isoform): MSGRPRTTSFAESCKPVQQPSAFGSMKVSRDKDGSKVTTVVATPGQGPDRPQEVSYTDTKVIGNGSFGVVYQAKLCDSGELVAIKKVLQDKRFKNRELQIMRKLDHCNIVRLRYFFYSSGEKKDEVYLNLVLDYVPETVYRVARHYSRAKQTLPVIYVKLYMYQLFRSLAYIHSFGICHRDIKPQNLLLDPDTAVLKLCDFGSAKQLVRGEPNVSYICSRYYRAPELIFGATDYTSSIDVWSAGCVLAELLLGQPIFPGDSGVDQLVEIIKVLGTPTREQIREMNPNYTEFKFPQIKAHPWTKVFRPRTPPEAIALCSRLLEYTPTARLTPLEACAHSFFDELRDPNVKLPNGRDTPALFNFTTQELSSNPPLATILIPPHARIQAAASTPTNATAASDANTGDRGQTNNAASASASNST
# Chain of Ribosomal protein S6 kinase alpha-3 (Homo sapiens) (P51812 whole entry): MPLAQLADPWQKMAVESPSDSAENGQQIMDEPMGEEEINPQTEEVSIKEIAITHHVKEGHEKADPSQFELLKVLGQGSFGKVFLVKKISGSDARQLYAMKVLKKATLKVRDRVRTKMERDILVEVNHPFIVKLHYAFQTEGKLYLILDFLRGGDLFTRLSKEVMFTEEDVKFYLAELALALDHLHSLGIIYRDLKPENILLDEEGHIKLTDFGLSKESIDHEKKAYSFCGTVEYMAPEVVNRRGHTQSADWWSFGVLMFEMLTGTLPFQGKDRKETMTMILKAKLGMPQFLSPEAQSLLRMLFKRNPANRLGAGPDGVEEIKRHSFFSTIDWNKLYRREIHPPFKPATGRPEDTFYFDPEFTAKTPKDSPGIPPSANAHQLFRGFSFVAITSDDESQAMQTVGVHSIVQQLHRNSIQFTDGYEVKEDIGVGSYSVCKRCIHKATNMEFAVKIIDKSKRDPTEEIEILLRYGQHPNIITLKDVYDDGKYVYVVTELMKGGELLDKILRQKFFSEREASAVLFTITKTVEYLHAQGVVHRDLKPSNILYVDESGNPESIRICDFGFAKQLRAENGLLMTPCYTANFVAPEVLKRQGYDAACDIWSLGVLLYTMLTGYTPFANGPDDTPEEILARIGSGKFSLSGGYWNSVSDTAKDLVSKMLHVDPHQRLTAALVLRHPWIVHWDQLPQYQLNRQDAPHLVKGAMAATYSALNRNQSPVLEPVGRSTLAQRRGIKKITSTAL
# Chain of Serine/threonine-protein kinase/endoribonuclease IRE1 (Homo sapiens) (O75460 19-977 limits assumed): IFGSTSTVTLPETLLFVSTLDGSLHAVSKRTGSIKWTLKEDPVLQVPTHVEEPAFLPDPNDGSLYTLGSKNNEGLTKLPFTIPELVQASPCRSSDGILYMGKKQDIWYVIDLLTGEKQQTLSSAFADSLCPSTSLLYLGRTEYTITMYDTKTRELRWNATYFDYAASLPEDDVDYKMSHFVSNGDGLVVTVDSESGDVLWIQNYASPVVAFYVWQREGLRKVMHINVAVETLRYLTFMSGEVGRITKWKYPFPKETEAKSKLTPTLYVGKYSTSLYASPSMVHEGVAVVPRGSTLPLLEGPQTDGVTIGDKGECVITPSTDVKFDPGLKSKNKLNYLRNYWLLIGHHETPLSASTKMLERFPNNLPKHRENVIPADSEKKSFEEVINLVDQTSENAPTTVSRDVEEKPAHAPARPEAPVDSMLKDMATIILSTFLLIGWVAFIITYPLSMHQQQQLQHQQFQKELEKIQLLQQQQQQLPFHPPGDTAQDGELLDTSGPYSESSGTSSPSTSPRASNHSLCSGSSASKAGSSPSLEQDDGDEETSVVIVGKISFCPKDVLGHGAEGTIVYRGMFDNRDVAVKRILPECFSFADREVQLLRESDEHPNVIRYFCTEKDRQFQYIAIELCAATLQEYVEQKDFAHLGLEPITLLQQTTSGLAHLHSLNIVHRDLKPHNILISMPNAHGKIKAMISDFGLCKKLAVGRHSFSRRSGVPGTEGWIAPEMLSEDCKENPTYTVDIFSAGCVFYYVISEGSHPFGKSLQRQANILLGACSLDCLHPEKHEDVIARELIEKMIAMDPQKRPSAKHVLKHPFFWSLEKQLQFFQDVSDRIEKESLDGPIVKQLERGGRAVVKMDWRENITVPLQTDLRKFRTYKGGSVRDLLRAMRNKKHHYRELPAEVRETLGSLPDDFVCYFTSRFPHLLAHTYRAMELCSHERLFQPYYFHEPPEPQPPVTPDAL
# Chain of Serine/threonine-protein kinase Chk2 (Homo sapiens) (O96017 whole entry): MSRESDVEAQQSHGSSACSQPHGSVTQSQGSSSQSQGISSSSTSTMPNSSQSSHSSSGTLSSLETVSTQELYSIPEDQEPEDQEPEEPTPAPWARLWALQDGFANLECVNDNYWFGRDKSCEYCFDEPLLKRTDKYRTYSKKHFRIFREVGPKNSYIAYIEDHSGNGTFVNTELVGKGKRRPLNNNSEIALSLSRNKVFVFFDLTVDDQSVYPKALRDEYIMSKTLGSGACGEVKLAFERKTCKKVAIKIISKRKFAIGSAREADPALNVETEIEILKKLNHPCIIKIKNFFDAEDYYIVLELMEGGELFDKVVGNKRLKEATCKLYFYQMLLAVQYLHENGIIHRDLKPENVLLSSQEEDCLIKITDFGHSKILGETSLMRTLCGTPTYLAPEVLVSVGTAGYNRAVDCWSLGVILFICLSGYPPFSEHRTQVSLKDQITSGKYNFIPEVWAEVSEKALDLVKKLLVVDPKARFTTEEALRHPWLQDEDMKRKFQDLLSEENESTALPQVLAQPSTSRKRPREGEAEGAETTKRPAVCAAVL
# Chain of Serine/threonine-protein kinase 16 (Homo sapiens) (O75716 whole entry): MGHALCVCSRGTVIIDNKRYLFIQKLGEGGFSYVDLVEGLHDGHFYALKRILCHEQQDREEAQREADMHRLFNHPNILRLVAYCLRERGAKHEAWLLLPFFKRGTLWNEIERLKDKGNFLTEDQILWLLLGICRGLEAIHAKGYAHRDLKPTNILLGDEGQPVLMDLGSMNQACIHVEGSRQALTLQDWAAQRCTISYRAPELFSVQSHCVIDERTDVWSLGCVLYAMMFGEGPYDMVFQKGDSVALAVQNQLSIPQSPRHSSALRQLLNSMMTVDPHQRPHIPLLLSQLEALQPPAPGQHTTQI
# Chain of Thromboxane A2 receptor (Homo sapiens) (P21731 whole entry): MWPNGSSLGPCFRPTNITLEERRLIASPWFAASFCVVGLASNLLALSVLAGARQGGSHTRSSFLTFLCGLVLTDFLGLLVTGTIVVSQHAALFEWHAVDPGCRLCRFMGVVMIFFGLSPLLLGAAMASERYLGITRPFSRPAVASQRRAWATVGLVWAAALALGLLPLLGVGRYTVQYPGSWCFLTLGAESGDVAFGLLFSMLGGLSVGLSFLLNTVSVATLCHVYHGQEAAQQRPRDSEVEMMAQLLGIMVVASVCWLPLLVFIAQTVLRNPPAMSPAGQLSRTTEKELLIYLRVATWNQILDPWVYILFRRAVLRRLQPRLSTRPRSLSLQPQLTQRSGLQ
smiles,measurement,setting,value
CCOCCn1cc(C(=O)Nc2ccc(-n3nc(-c4cccnc4)cc3C(F)(F)F)cn2)ccc1=O [BI 1935],residual activity,[1],88%
same,residual activity,[2],96%
same,residual activity,[3],84%
same,residual activity,[4],92%
same,residual activity,[5],100%
same,residual activity,[6],98%
same,inhibition,[7],25.3%
same,residual activity,[8],85%
same,residual activity,[9],110%
same,residual activity,[10],87%
same,residual activity,[11],100%
same,residual activity,[12],100%
same,residual activity,[13],83%
same,residual activity,[14],100%
same,residual activity,[15],100%
same,residual activity,[16],0%
same,residual activity,[17],100%
same,residual activity,[18],81%
same,residual activity,[19],76%
same,inhibition,[20],-1.74%
same,residual activity,[21],98%
same,residual activity,[22],100%
same,residual activity,[23],100%
same,residual activity,[24],100%
same,residual activity,[25],100%
same,residual activity,[26],87%
same,residual activity,[27],99%
same,residual activity,[28],100%
same,residual activity,[29],100%
same,residual activity,[30],86%
same,residual activity,[31],100%
same,residual activity,[32],94%
same,residual activity,[33],98%
same,residual activity,[34],100%
